Values after ≈ are worked out from the molar mass of the structure shown. Active and inactive are the calls of the source. No cut-off for these calls is given here.
What was measured:
LNCaP [1] = experiment: Apoptotic activity in human LNCaP cells assessed as induction of Fas expression at 12.5 ug/ml after 24 hrs by immunoblot; assay type: functional, cell-based
LNCaP [2] = experiment: Induction of apoptosis in human LNCaP cells assessed as procaspase 3 cleavage at 12.5 ug/ml by immunoblot; assay type: functional, cell-based; settings: TDE = time-dependent effect
LNCaP [3] = experiment: Induction of apoptosis in human LNCaP cells assessed as procaspase 3 cleavage at 50 ug/ml by immunoblot; assay type: functional, cell-based; settings: TDE = time-dependent effect
LNCaP [4] = experiment: Induction of apoptosis in human LNCaP cells assessed as procaspase 3 cleavage by immunoblot; assay type: functional, cell-based
LNCaP [5] = experiment: Induction of apoptosis in human LNCaP cells assessed as procaspase 8 cleavage at 12.5 ug/ml by immunoblot; assay type: functional, cell-based; settings: TDE = time-dependent effect
LNCaP [6] = experiment: Induction of apoptosis in human LNCaP cells assessed as procaspase 8 cleavage at 50 ug/ml by immunoblot; assay type: functional, cell-based; settings: TDE = time-dependent effect
LNCaP [7] = experiment: Induction of apoptosis in human LNCaP cells assessed as procaspase 8 cleavage by immunoblot; assay type: functional, cell-based
LNCaP [8] = experiment: Apoptotic activity in human LNCaP cells assessed as induction of FasL expression after 12 hrs; assay type: functional, cell-based
LNCaP [9] = experiment: Induction of apoptosis in human LNCaP cells assessed as subG1 phase accumulation at > 6.25 ug/ml after 4 days; assay type: functional, cell-based
LNCaP [10] = experiment: Cell cycle arrest in human LNCaP cells assessed as reduction of G1 phase at > 6.25 ug/ml after 4 days; assay type: functional, cell-based
LNCaP [11] = experiment: Cell cycle arrest in human LNCaP cells assessed as accumulation in S phase at 6.25 ug/ml after 4 days; assay type: functional
LNCaP [12] = experiment: Induction of procaspase 3 expression in human LNCaP cells at 50 ug/ml after 48 hrs by immunoblot; assay type: functional, cell-based
LNCaP [13] = experiment: Induction of procaspase 3 expression in human LNCaP cells at 6.25 ug/ml after 48 hrs by immunoblot; assay type: functional, cell-based
LNCaP [14] = experiment: Induction of procaspase 3 expression in human LNCaP cells at 25 ug/ml after 48 hrs by immunoblot; assay type: functional, cell-based
LNCaP [15] = experiment: Decrease in mitochondrial membrane potential in human LNCaP cells at 50 ug/ml after 18 hrs; assay type: functional, cell-based
LNCaP [16] = experiment: Decrease in mitochondrial membrane potential in human LNCaP cells at 6.25 ug/ml after 18 hrs; assay type: functional
LNCaP [17] = experiment: Increase in intracellular ROS generation in human LNCaP cells at 6.25 ug/ml after 30 mins; assay type: functional
LNCaP [18] = experiment: Increase in intracellular ROS generation in human LNCaP cells at 50 ug/ml after 30 mins; assay type: functional
LNCaP [19] = experiment: Cytotoxicity against human LNCaP cells after 48 hrs by MTT assay; assay type: functional, cell-based
SW-620 = experiment: Cytotoxicity against human SW620 cells after 48 hrs by MTT assay; assay type: functional, cell-based; settings: SW-620, 48 h
L929 = experiment: Cytotoxicity against mouse L929 cells after 48 hrs by MTT assay; assay type: cell-based; settings: L929, 48 h
LNCaP [20] = experiment: Effect on cell morphology in human LNCaP cells assessed as loss of cell surface structure at => 12.5 ug/mL; assay type: functional
LNCaP [21] = experiment: Decrease of cyclin D expression in human LNCaP cells after 24 hrs by immunoblotting analysis; assay type: functional, cell-based
LNCaP [22] = experiment: Decrease of PCNA expression in human LNCaP cells after 24 hrs by immunoblotting analysis; assay type: functional, cell-based
LNCaP [23] = experiment: Cell cycle arrest in human LNCaP cells assessed as accumulation in G1 phase at 6.25 ug/ml after 4 days; assay type: functional
LNCaP [24] = experiment: Apoptotic activity in human LNCaP cells assessed as induction of FasL expression at 12.5 ug/ml after 6 hrs by immunoblot; assay type: functional, cell-based
LNCaP [25] = experiment: Apoptotic activity in human LNCaP cells assessed as induction of p21 expression at 12.5 ug/ml after 12 hrs by immunoblot; assay type: functional, cell-based
LNCaP [26] = experiment: Reduction of NF-kappaB binding to cyclin D promoter in human LNCaP cells by electrophoretic mobility shift assay; assay type: cell-based
[27] = target: Transcription factor Jun (Homo sapiens) (UniProt P05412); experiment: Reduction of AP1 binding to cyclin D promoter in human LNCaP cells by electrophoretic mobility shift assay; assay type: cell-based
Transcription factor Jun (Homo sapiens), sequence (P05412 whole entry): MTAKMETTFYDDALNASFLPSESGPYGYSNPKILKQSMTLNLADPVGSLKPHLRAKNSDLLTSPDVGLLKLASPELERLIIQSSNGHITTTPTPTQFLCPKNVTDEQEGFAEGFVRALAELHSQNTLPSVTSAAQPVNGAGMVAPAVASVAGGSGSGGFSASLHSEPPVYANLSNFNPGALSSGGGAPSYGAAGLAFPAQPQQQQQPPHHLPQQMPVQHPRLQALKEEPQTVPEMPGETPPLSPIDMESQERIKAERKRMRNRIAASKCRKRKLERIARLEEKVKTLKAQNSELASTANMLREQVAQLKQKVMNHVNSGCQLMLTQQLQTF

LNCaP [28] = experiment: Increase in p21 mRNA expression in human LNCaP cells at >12.5 ug/mL after 24 hrs by RT-PCR; assay type: functional, cell-based

**Q.** For `O=C1c2c(O)cc(O)cc2O[C@H](c2ccc(O)cc2)[C@@H]1[C@@H]1C(=O)c2c(O)cc(O)cc2O[C@@H]1c1ccc(O)cc1` [NEOCHAMAEJASMIN A], which Activity (LNCaP [1]) is on record?
**A.** Active

**Q.** And the Activity (LNCaP [2])?
**A.** tde

**Q.** And the Activity (LNCaP [3])?
**A.** tde

**Q.** What about the Activity (LNCaP [4]) of the same molecule?
**A.** Dose-dependent effect

**Q.** What about the Activity (LNCaP [5]) of the same molecule?
**A.** tde

**Q.** What about the Activity (LNCaP [6]) of the same molecule?
**A.** tde

**Q.** And the Activity (LNCaP [7])?
**A.** Dose-dependent effect

**Q.** And the Activity (LNCaP [8])?
**A.** Dose-dependent effect

**Q.** And the Activity (LNCaP [9])?
**A.** Active

**Q.** And the Activity (LNCaP [10])?
**A.** Dose-dependent effect

**Q.** And the Activity (LNCaP [11])?
**A.** <10%

**Q.** And the Activity (LNCaP [12])?
**A.** Active

**Q.** What about the Activity (LNCaP [13]) of the same molecule?
**A.** Active

**Q.** And the Activity (LNCaP [14])?
**A.** Active

**Q.** And the Activity (LNCaP [15])?
**A.** Active

**Q.** What about the “fold change (FC)” value (LNCaP [16]) of the same molecule?
**A.** 1.6

**Q.** What about the “fold change (FC)” value (LNCaP [17]) of the same molecule?
**A.** 1.5

**Q.** What about the “fold change (FC)” value (LNCaP [18]) of the same molecule?
**A.** 3.5

**Q.** And the IC50 (LNCaP [19])?
**A.** 12.5 µg/mL (≈ 23 µM)

**Q.** And the IC50 (SW-620)?
**A.** 25.1 µg/mL (≈ 46.3 µM)

**Q.** What about the IC50 (L929) of the same molecule?
**A.** 90 µg/mL (≈ 166 µM)

**Q.** And the Activity (LNCaP [20])?
**A.** >=12.5 ug ml-1

**Q.** And the Activity (LNCaP [21])?
**A.** Dose-dependent effect

**Q.** And the Activity (LNCaP [22])?
**A.** Dose-dependent effect

**Q.** And the Activity (LNCaP [23])?
**A.** 75%

**Q.** And the Activity (LNCaP [24])?
**A.** Active

**Q.** What about the Activity (LNCaP [25]) of the same molecule?
**A.** Active

**Q.** And the Activity (LNCaP [26])?
**A.** Active

**Q.** And the Activity [27]?
**A.** Active

**Q.** And the Activity (LNCaP [28])?
**A.** Active

Source: ChEMBL document CHEMBL1149908, “Involvement of p21 and FasL in induction of cell cycle arrest and apoptosis by neochamaejasmin A in human prostate LNCaP cancer cells” (J Nat Prod, 2008)
